The source of these data is patent US9822069B2, “Urea derivative or pharmacologically acceptable salt thereof” (KYORIN PHARMACEUTICAL CO. LTD., priority 2013, dated 2017).

Structures are written as SMILES.

The test has as its target T1, human FPRL1 (Homo sapiens, UniProt P25090).
T1 construct: expressed in transfected cells; host or cells: HEK293 (JCRB9068, NIBIO), transient transfection with pCMV-script vectors using Lipofectamine 2000
T1 sequence (P25090 1-351): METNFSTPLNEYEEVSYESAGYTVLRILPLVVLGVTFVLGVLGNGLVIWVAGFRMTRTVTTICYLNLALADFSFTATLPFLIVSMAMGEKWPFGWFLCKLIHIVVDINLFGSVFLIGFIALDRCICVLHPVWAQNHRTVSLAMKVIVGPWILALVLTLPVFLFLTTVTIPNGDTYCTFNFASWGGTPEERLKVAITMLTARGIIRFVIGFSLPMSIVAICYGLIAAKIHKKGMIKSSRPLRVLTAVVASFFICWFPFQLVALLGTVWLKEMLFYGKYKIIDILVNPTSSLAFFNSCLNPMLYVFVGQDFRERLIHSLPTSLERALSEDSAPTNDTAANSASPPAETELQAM
Briefly: Measurement test of agonist activity on human FPRL1 (test of calcium mobilization in cell, HEK293 with human FPRL1 and Gα15 expression vectors). The settings on record: calcium mobilization in HEK293 cells with human FPRL1 and Gα15 expression vectors. Format: cell-based. An excerpt: Measurement Test of Agonist Activity on Human FPRL1
(1-1) Construction of Human FPRL1 Expression Vector
Human FPRL (SEQ ID NO: 3) was amplified in a PCR reaction from cDNA derived from a monocytic leukemia cell line THP-1 (TIB-202, ATCC) as a template using a forward primer shown in SEQ ID NO: 1, a reverse primer shown in SEQ ID NO: 2, and KOD-plus-ver. 2 (KOD-211, TOYOBO CO., LTD.). The amplified PCR product and pCMV-script vector (212220, STRATAGENE) were digested with Hind III (1060A, Takara Bio Inc.) and XhoI (1094A, Takara Bio Inc.), and the resultant digest was ligated with Ligation high ver. 2 (LGK-201, TOYOBO CO., LTD.). The ligation product was transformed into DH5α (DNA-901, TOYOBO CO., LTD.), cultured on a 100 μg/mL kanamycin-containing LB medium, and purified with HiSpeed Plasmid Maxi Kit (12662, QIAGEN).
(1-2) Construction of Human Gα15 Expression Vector
Human Gα15 (SEQ ID NO: 6) was amplified in a PCR reaction from cDNA derived from a myeloid leukemia cell line HL-60 (CCL-240, ATCC) as a template using a forward primer shown in SEQ ID NO: 4, a reverse primer shown in SEQ ID NO: 5, and KOD-plus-ver. 2. The amplified PCR product and pCMV-script vector were digested with Hind III and XhoI, and the resultant digest was ligated with Ligation high ver. 2. The ligation product was transformed into DH5α, cultured on a 100 μg/mL kanamycin-containing LB medium, and purified with HiSpeed Plasmid Maxi Kit.
(2-1) Method for Culturing and Subculturing HEK293
HEK293 (JCRB9068, NIBIO) was cultured in an incubator at 5% CO2 and 37° C. using DMEM (11885-092, GIBCO) containing 10% FBS and 1× Penicillin-Streptomycin (15140-122, GIBCO). Subculture was carried out as followings: The cells that reached 80 to 90% confluency were washed with PBS(−), separated using 0.25% Trypsin-EDTA (25200-072, GIBCO), centrifuged, re-suspended in a fresh medium, and then seeded in Collagen Type 1 Coated dish (4020-010, IWAKI) at a split ratio of 1:8 (cultured for 3 days).
(2-2) Introduction of Human FPRL1 and Gα15 Expression Vectors
HEK293 that reached 80 to 90% confluency was washed with PBS(−), separated using 0.25% Trypsin-EDTA, centrifuged, and re-suspended in a fresh medium excluding 1× Penicillin-Streptomycin. The cells were inoculated in a Collagen Type 1 coated 6-well plate (4810-010, IWAKI) to 5×10^5 cells/2.5 mL/well and cultured overnight. On the next day, human FPRL1 and Gα15 expression vectors were introduced using Lipofectamine 2000 transfection reagent (11668-019, Life technologies). First, the human FPRL1 and Gα15 expression vectors were diluted with Opti-MEM I Reduced Serum Medium (31985-070, GIBCO) to 2 μg/250 μL/well and Lipofectamine 2000 transfection reagent was diluted with Opti-MEM I Reduced Serum Medium to be 4 μL/250 μL/well. The vectors and reagent were softly diffused, and incubated at room temperature for 5 minutes. The vector solution was mixed with Lipofectamine 2000 transfection reagent in equal amounts. In order to form a composite of the vectors and Lipofectamine 2000 transfection reagent, the mixture was incubated at room temperature for 20 minutes, and added at 500 μL/well to the medium of inoculated cells. The treated cells were cultured for 24 hours, inoculated in Poly-D-Lysine coated 96-well plate (356640, BD Biosciences) at a cell density of 7×10^4 cells/100 μL/well, and cultured for another 24 hours. The resultant cells were used in a measurement test of calcium mobilization in the cells.
(3) Evaluation of Agonist Activity on Human FPRL1 (Test of Calcium Mobilization in Cell)
An appropriate amount of each test compound was first weighed, and dissolved to 10^−2 M by addition of dimethyl sulfoxide (DMSO). […]
Take `COc1ccc([C@@H]2CN(CCO)C(=O)C2NC(=O)Nc2ccc(Cl)cc2)cc1` (mixture of isomers) [Example 14-1, (±)-trans-1-(4-Chlorophenyl)-3-[1-(2-hydroxyethyl)-4-(4-methoxyphenyl)-2-oxopyrrolidin-3-yl]urea]: the EC50 (commonly the midpoint of the concentration-response curve) is 0.32 nM. The result for `COc1ccc([C@@H]2CNC(=O)[C@H]2NC(=O)Nc2ccc(F)cc2)c(Cl)c1` (relative stereo) [EXAMPLE 1-10, 1-[(3S*,4R*)-4-(2-chloro-4-methoxyphenyl)-2-oxopyrrolidin-3-yl]-3-(4-fluorophenyl)urea] reads 3.98 nM; that for `C/N=C1\NC[C@@H](c2c(F)cc(OC)cc2F)[C@@H]1NC(=O)Nc1ccc(F)cc1` (relative stereo) [EXAMPLE 32-6, 1-[(3S*,4R*,Z)-4-(2,6-difluoro-4-methoxyphenyl)-2-(methylimino)pyrrolidin-3-yl]-3-(4-fluorophenyl)urea], 0.37 nM; that for `COc1cc(F)c([C@@H]2CN=C(Nc3ccccc3)[C@H]2NC(=O)Nc2ccc(F)cc2)c(F)c1` (relative stereo) [EXAMPLE 32-18, 1-[(3R*,4S*)-3-(2,6-difluoro-4-methoxyphenyl)-5-(phenylamino)-3,4-dihydro-2H-pyrrol-4-yl]-3-(4-fluorophenyl)urea], 0.54 nM. For `COc1cc(F)c([C@@H]2CNC(=O)[C@H]2NC(=O)Nc2ncc(Cl)s2)c(F)c1` (relative stereo) [Example 1-26, (−)-1-(5-chlorothiazol-2-yl)-3-[(3S*,4R*)-4-(2,6-difluoro-4-methoxyphenyl)-2-oxopyrrolidin-3-yl]urea], the EC50 is 1.91 nM.

With `COc1cc(F)c([C@@H]2CNC(=O)[C@H]2NC(=O)Nc2ccc(Cl)cn2)c(F)c1` (relative stereo) [Example 1-32, (−)-1-(5-chloropyridin-2-yl)-3-[(3S*,4R*)-4-(2,6-difluoro-4-methoxyphenyl)-2-oxopyrrolidin-3-yl]urea], the EC50 is 4.54 nM. The value for `COc1cc(F)c([C@@H]2CNC(=O)[C@H]2NC(=O)Nc2cc3ccccc3s2)c(F)c1` (relative stereo) [Example 1-35, (−)-1-(benzo[b]thiophen-2-yl)-3-[(3S*,4R*)-4-(2,6-difluoro-4-methoxyphenyl)-2-oxopyrrolidin-3-yl]urea] was 0.76 nM; that for `COc1cc(F)c([C@@H]2CNC(=O)[C@H]2NC(=O)Nc2ccc(C)s2)c(F)c1` (relative stereo) [Example 1-39, (−)-1-[(3S*,4R*)-4-(2,6-difluoro-4-methoxyphenyl)-2-oxopyrrolidin-3-yl]-3-(5-methylthiophen-2-yl)urea] was 3.51 nM; that for `COc1ccc([C@@H]2[C@H](C)NC(=O)[C@H]2NC(=O)Nc2ccc(F)cc2)cc1` (relative stereo) [Example 1-40, (−)-1-(4-fluorophenyl)-3-[(3S*,4R*,5S*)-4-(4-methoxyphenyl)-5-methyl-2-oxopyrrolidin-3-yl]urea] was 1.44 nM.

Regarding `COc1ccc([C@H]2[C@H](NC(=O)Nc3ccc(F)cc3)C(=O)N[C@@H]2C)cc1` (relative stereo) [Example 1-41, (−)-1-(4-fluorophenyl)-3-[(3S*,4R*,5R*)-4-(4-methoxyphenyl)-5-methyl-2-oxopyrrolidin-3-yl]urea], the EC50 amounted to 0.73 nM. In the case of `O=C(Nc1ccc(Cl)cc1)N[C@H]1C(=O)NC[C@@H]1c1ccccc1` (relative stereo) [Example 1-43, (+)-1-(4-chlorophenyl)-3-[(3R*,4S*)-2-oxo-4-phenylpyrrolidin-3-yl]urea], the EC50 came out at 5.13 nM. Turning to `COc1cc(F)c([C@@H]2CNC(=O)[C@H]2NC(=O)Nc2cccc(O)c2)c(F)c1` (relative stereo) [Example 1-57, 1-[(3S*,4R*)-4-(2,6-difluoro-4-methoxyphenyl)-2-oxopyrrolidine-3-yl]-3-(3-hydroxyphenyl)urea], the EC50 stood at 0.16 nM. On to `COc1cc(F)c([C@@H]2CNC(=O)[C@H]2NC(=O)Nc2cc(C)ns2)c(F)c1` (relative stereo) [Example 1-58, (−)-1-[(3S*,4R*)-4-(2,6-difluoro-4-methoxyphenyl)-2-oxopyrrolidin-3-yl]-3-(3-methylisothiazol-5-yl)urea], for which the EC50 turned out to be 0.32 nM.

Take `COc1cc(F)c([C@@H]2CNC(=O)[C@H]2NC(=O)Nc2ccc(C3CC3)cc2)c(F)c1` (relative stereo) [Example 1-62, (−)-1-(4-cyclopropylphenyl)-3-[(3S*,4R*)-4-(2,6-difluoro-4-methoxyphenyl)-2-oxopyrrolidin-3-yl]urea]: the EC50 was found to be 1.05 nM. The value for `COc1cc(F)c([C@@H]2CNC(=O)[C@H]2NC(=O)Nc2ccc(C(F)(F)F)cc2)c(F)c1` (relative stereo) [Example 1-63, (−)-1-[(3S*,4R*)-4-(2,6-difluoro-4-methoxyphenyl)-2-oxopyrrolidin-3-yl]-3-[4-(trifluoromethyl)phenyl]urea] was 0.92 nM; that for `COc1cc(F)c([C@@H]2CNC(=O)[C@H]2NC(=O)Nc2ccc(C#N)c(O)c2)c(F)c1` (relative stereo) [Example 1-73, 1-(4-cyano-3-hydroxyphenyl)-3-[(3S*,4R*)-4-(2,6-difluoro-4-methoxyphenyl)-2-oxopyrrolidin-3-yl]urea] was 1.2 nM. On to `O=C(Nc1ccc(F)cc1)N[C@@H]1C(=O)NC[C@H]1c1c(F)cc(OC(F)F)cc1F` (relative stereo) [Example 1-74, 1-{(3S*,4R*)-4-[4-(difluoromethoxy)-2,6-difluorophenyl]-2-oxopyrrolidin-3-yl}-3-(4-fluorophenyl)urea], for which the EC50 was found to be 1.8 nM. With `O=C(Nc1ccc(F)cc1)N[C@@H]1C(=O)NC[C@H]1c1cc2ccoc2cc1F` (relative stereo) [Example 1-77, (−)-1-[(3S*,4R*)-4-(6-fluorobenzofuran-5-yl)-2-oxopyrrolidin-3-yl]-3-(4-fluorophenyl)urea], the EC50 was determined as 5.2 nM.

On to `O=C(Nc1ccc(F)cc1)N[C@@H]1C(=O)NC[C@H]1c1c(F)cc2c(c1F)CCO2` (relative stereo) [Example 1-80, 1-[(3S*,4R*)-4-(4,6-difluoro-2,3-dihydrobenzofuran-5-yl)-2-oxopyrrolidin-3-yl]-3-(4-fluorophenyl)urea], for which the EC50 worked out at 0.69 nM. For `O=C(Nc1cc2ccccc2s1)N[C@@H]1C(=O)NC[C@H]1c1cc2c(cc1F)OCC2` (relative stereo) [Example 1-85, (−)-1-(benzo[b]thiophen-2-yl)-3-[(3S*,4R*)-4-(6-fluoro-2,3-dihydrobenzofuran-5-yl)-2-oxopyrrolidin-3-yl]urea], the EC50 stood at 3.5 nM. For `COc1cc(F)c([C@@H]2CNC(=O)[C@H]2NC(=O)Nc2ccc(OC(F)(F)F)cc2)c(F)c1` (relative stereo) [Example 7-1, (−)-1-[(3S*,4R*)-4-(2,6-Difluoro-4-methoxyphenyl)-2-oxopyrrolidin-3-yl]-3-[4-(trifluoromethoxy)phenyl]urea], the EC50 came to 1.09 nM.
